Test results published in patent US20210238169A1, “PROCESS FOR PREPARING A COMPOUND OF FORMULA (XIII)” (PULMOCIDE LIMITED, priority 2014, published 2021).
In brackets after ≈: the same amount, converted by molar mass.

What was measured:
Aspergillus flavus = experiment: Fungus panel screening, CLSI broth microdilution; type: cell-based; settings: strain ATCC204304, visual inspection (CLSI); for MIC: read-out: MIC100
Procedure: (§1) Fungus panel screening was conducted by Eurofins Panlabs Inc. The MIC and MIC50 values of the test articles were determined following the guidelines of the Clinical and Laboratory Standards Institute, broth microdilution methods for yeast (CLSI M27-A2), (CLSI, 2002) and for filamentous fungi (CLSI M38-A), (CLSI, 2008).

Cryptococcus neoformans = experiment: Fungus panel screening, CLSI broth microdilution; type: cell-based; settings: strain ATCC24067, visual inspection (CLSI); for MIC: read-out: MIC100
Procedure: as §1

[1] = test system: Aspergillus fumigatus (ATCC 13073); experiment: Survival of severely immunocompromised, neutropenic mice infected with Aspergillus fumigatus, monotherapy or combination; type: in vivo; settings: Compound (I) 0.4 mg/mL (in), Posaconazole 1 mg/kg (po), once daily days 1-6
Procedure: On day 0, animals were infected intranasally with 35 μL of the spore suspension (1.67×10^8 spores/mL in physiological saline) of Aspergillus fumigatus (ATCC 13073 [strain: NIH 5233]). Compound (I) prepared as a suspension in isotonic saline (0.4 mg/mL) was dosed once daily by an intra-nasal injection (35 μL/mouse) on days 1-6 after infection. Posaconazole (1 mg/kg) was given orally once daily on days 1-6 after infection. Body weight and survival were monitored daily up to day 7.

[2] = test system: Aspergillus fumigatus (TR34-L98H strain); experiment: Aspergillus fumigatus invasion in human alveoli bilayers (transwells), GM in lower chamber; type: cell-based; settings: Compound (I) 1 μg/mL upper chamber, Posaconazole 0.1 μg/mL lower chamber
Procedure: In vitro models of human alveoli, consisting of a bilayer of human alveolar epithelial cells and endothelial cells, were prepared as previously described (Hope et al., 2007). This system allows administration of a test compound to the upper (“air” space) and/or lower (“systemic” space) compartments. This flexibility has been exploited to explore the effects of combination treatments by dosing Compound (I) to the upper chamber and posaconazole or other anti-fungal agents to the lower chamber. Primary human pulmonary artery endothelial cells (HPAEC) were harvested and diluted to 10^6 cells/mL in EGM-2 media (Lonza, Basel, Switzerland). Transwells were inverted and the cell suspension (100 μL/well) was applied to the base of each transwell. The inverted transwells were incubated at RT within a flow hood for 2 hr after which they were turned upright. EGM-2 media was added to the lower (700 μL/well) and upper (100 μL/well) compartments and the transwells were incubated for 48 hr (37° C., 5% CO2). The EGM-2 media in the lower compartment was then replaced with fresh EGM-2 media. A549 cells were harvested and diluted to 5×10^5 cells/mL in 10% EBM, then added to the upper compartment (100 μL/well) of all transwells and the plates incubated for 72 hr (37° C., 5% CO2). Conidia of Aspergillus fumigatus (the itraconazole sensitive strain NCPF2010 and the itraconazole resistant strain TR34-L98H) were cultured separately in Sabouraud dextrose agar for 3 days. A stock conidia suspension of either strain was prepared from a Sabouraud dextrose agar culture by washing with PBS-tween (10 mL; PBS containing 0.05% Tween-20, 100 U/mL Penicillin and 100 U/mL Streptomycin). The conidia count was assessed using a Neubauer haemocytometer and adjusted to 10^6 conidia/mL with PBS. A working stock of conidia was prepared in EBM (conc of 10^5 conidia/mL) immediately prior to use.
Test and reference compounds (or neat DMSO as the vehicle) were added to the appropriate wells of 24-well plates (3 μL/well containing 600 μL of 2% FBS EBM) for lower compartment treatment and to 96-well plates (1 μL/well containing 200 μL of 2% FBS EBM) for the treatment of the upper compartment, to provide a final DMSO concentration of 0.5%. The media in the upper compartment was aspirated and that containing the appropriate test and reference compounds, or vehicle, were added (100 μL/well). Transwells were then transferred into the 24-well plate containing the test and reference compounds or DMSO vehicle. After incubation for 1 hr (35° C., 5% CO2) the conidia suspension (10 μL/well) was added to the upper compartment of each transwell. Plates were then incubated for 24 hr (35° C., 5% CO2). Supernatants from each compartment (5 μL/compartment) were collected and stored (−20° C.). Media was replaced daily after collection of the supernatants and all wells were treated with test and reference compounds or with DMSO, as described above, for 3 days. Samples continued to be collected until fungal growth was visible by eye in all transwells. The levels of GM in the supernatant in lower compartment were then measured by ELISA (BioRad, CA, USA) as an index of Aspergillus fumigatus invasion.

[3] = test system: Aspergillus fumigatus (ATCC 13073); experiment: Body weight loss of Aspergillus fumigatus infected, immunocompromised, neutropenic mice; type: in vivo; settings: 0.4 mg/mL intra-nasally, prophylactic; for Body weight loss caused by infection with A. fumigatus: % weight loss compared with day 0
Procedure: Aspergillus fumigatus (ATCC 13073 [strain: NIH 5233], American Type Culture Collection, Manassas, Va., USA) was grown on Malt agar (Nissui Pharmaceutical, Tokyo, Japan) plates for 6-7 days at RT (24±1° C.). Spores were aseptically dislodged from the agar plates and suspended in sterile distilled water with 0.05% Tween 80 and 0.1% agar. On the day of infection, spore counts were assessed by haemocytometer and the inoculum was adjusted to obtain a concentration of 1.67×10^8 spores mL^−1 of physiological saline.
On day 0, animals were infected with the spore suspension (35 μL intra-nasally).
Test compounds were administered intra-nasally (35 μL of a suspension of 0.08-2.00 mg/mL in physiological saline) once daily, 30 min before infection on day 0 and then on days 1, 2 and 3 (representing prophylactic treatment) or on days 1, 2 and 3 only (representing therapeutic treatment). For extended prophylactic treatment, test compounds (35 μL of a suspension of 0.0032 or 0.016 mg/mL in physiological saline) were administered intra-nasally once daily for seven days; then 30 min before infection on day 0, and thereafter, either on days 1, 2 and 3 after infection, or on day 0 only. The effects of these treatment paradigms were compared with those obtained when treatment was restricted to one day and 30 min before inoculation and then on days 1, 2 and 3 post infection; or reduced still further to one day and 30 min before infection only.

SMILES	MIC50 (Aspergillus flavus) [µg/mL]	MIC (Aspergillus flavus) [µg/mL]	MIC50 (Cryptococcus neoformans) [µg/mL]	MIC (Cryptococcus neoformans) [µg/mL]	Median survival [1] [days]	No. of survivors on day 7 [1]	survivors on day 7 (%) [1] [%]	DFB50 (days taken to reach a fungal burden of 50% of control) [2] [days]	GM Levels in the Lower Chamber, OD value ([2]; Treatment Day 0) [OD]	GM Levels in the Lower Chamber, OD value ([2]; Treatment Day 1) [OD]	GM Levels in the Lower Chamber, OD value ([2]; Treatment Day 2) [OD]	GM Levels in the Lower Chamber, OD value ([2]; Treatment Day 3) [OD]	GM Levels in the Lower Chamber, OD value ([2]; Treatment Day 4) [OD]	% Inhibition of weight loss ([3]; Day 1) [%]	Body weight loss caused by infection with A. fumigatus ([3]; Day 1) [%]	% Inhibition of weight loss ([3]; Day 2) [%]	Body weight loss caused by infection with A. fumigatus ([3]; Day 2) [%]	% Inhibition of weight loss ([3]; Day 3) [%]	Body weight loss caused by infection with A. fumigatus ([3]; Day 3) [%]	other results
Cc1cc(N2CCN(c3ccc(C(=O)Nc4ccc(F)cc4)cc3)CC2)ccc1OC[C@@H]1CO[C@@](Cn2cncn2)(c2ccc(F)cc2F)C1 [Compound (I), 4-(4-(4-(((3R,5R)-5-((1H-1,2,4-triazol-1-yl)methyl)-5-(2,4-difluorophenyl)tetrahydrofuran-3-yl)methoxy)-3-methylphenyl)piperazin-1-yl)-N-(4-fluorophenyl)benzamide]	1 (≈ 1.46 µM)	> 8	0.008 (≈ 0.0117 µM)	1 (≈ 1.46 µM)	6	0/6	0	1.10	0	0.35	0.99	0.99	1.01	34	6.1 ± 1.8	39	8.7 ± 2.5	42	11.1 ± 5.6	–
CC[C@@H]([C@H](C)O)n1ncn(-c2ccc(N3CCN(c4ccc(OC[C@@H]5CO[C@@](Cn6cncn6)(c6ccc(F)cc6F)C5)cc4)CC3)cc2)c1=O [Posaconazole]	0.063 (≈ 0.0899 µM)	0.13 (≈ 0.186 µM)	0.016 (≈ 0.0228 µM)	0.25 (≈ 0.357 µM)	6.5	0/6	0	1.64	0	0.039	1.02	0.97	1.02	21	7.3 ± 2.0	6	13.4 ± 1.9	6	18.1 ± 2.0	GM Levels in the Lower Chamber, % inhibition vs. control ([2]; Treatment Day 1): 88%; GM Levels in the Lower Chamber, % inhibition vs. control ([2]; Treatment Day 2): −2.7%; GM Levels in the Lower Chamber, % inhibition vs. control ([2]; Treatment Day 3): 1.7%; GM Levels in the Lower Chamber, % inhibition vs. control ([2]; Treatment Day 4): −1.4%
